Experiments:
[1] = test system: NK-YS (IL-2 2.5 ng/mL); experiment: drug sensitivity score (DSS) (DSS units); higher = more sensitive; extreme values may be limits of the assay; settings: 72 h
[2] = test system: normal primary NK cells, pool 2 (3 donors) (IL-2 2.5 ng/mL); experiment: as above; settings: 72 h
[3] = test system: NK-92 (IL-2 2.5 ng/mL); experiment: as above; settings: 72 h
[4] = test system: KAI3 (IL-2 2.5 ng/mL); experiment: as above; settings: 72 h
[5] = test system: YT (IL-2 2.5 ng/mL); experiment: as above; settings: 72 h
[6] = test system: normal primary NK cells, pool 1 (3 donors), resting (IL-2 0 ng/mL); experiment: as above; settings: 72 h
[7] = test system: NKL (IL-2 2.5 ng/mL); experiment: as above; settings: 72 h
[8] = test system: normal primary NK cells, pool 1 (3 donors) (IL-2 2.5 ng/mL); experiment: as above; settings: 72 h
[9] = test system: normal primary NK cells, pool 3 (3 donors) (IL-2 2.5 ng/mL); experiment: as above; settings: 72 h
[10] = test system: IMC-1 (IL-2 20 ng/mL); experiment: as above; settings: 72 h
[11] = test system: SNK-6 (IL-2 2.5 ng/mL); experiment: as above; settings: 72 h
[12] = test system: KHYG-1 (IL-2 2.5 ng/mL); experiment: as above; settings: 72 h
[13] = test system: DERL-7 (IL-2 2.5 ng/mL); experiment: as above; settings: 72 h
[14] = test system: normal NK cells expanded with K562-aAPC; experiment: as above; settings: 72 h; IL-2 2.5 ng/mL
Experimental: (§1)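 Drug sensitivity and resistance testing on K562-aAPC-expanded normal NK cells: 5 concentrations (10-fold steps over a 10,000-fold range), 72 h at 37 °C, viability by CellTiter-Glo normalised to DMSO and benzethonium chloride controls; DSS from the fitted curve.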

[15] = test system: NK-YS (IL-2 2.5 ng/mL); experiment: percent inhibition of viability; higher = more inhibition; settings: 72 h
[16] = test system: normal primary NK cells, pool 2 (3 donors) (IL-2 2.5 ng/mL); experiment: as above; settings: 72 h
[17] = test system: NK-92 (IL-2 2.5 ng/mL); experiment: as above; settings: 72 h
[18] = test system: KAI3 (IL-2 2.5 ng/mL); experiment: as above; settings: 72 h
[19] = test system: YT (IL-2 2.5 ng/mL); experiment: as above; settings: 72 h
[20] = test system: normal primary NK cells, pool 1 (3 donors), resting (IL-2 0 ng/mL); experiment: as above; settings: 72 h
[21] = test system: NKL (IL-2 2.5 ng/mL); experiment: as above; settings: 72 h
[22] = test system: normal primary NK cells, pool 1 (3 donors) (IL-2 2.5 ng/mL); experiment: as above; settings: 72 h
[23] = test system: normal primary NK cells, pool 3 (3 donors) (IL-2 2.5 ng/mL); experiment: as above; settings: 72 h
[24] = test system: IMC-1 (IL-2 20 ng/mL); experiment: as above; settings: 72 h
[25] = test system: SNK-6 (IL-2 2.5 ng/mL); experiment: as above; settings: 72 h
[26] = test system: KHYG-1 (IL-2 2.5 ng/mL); experiment: as above; settings: 72 h
[27] = test system: DERL-7 (IL-2 2.5 ng/mL); experiment: as above; settings: 72 h
[28] = test system: normal NK cells expanded with K562-aAPC; experiment: as above; settings: 72 h, IL-2 2.5 ng/mL
Experimental: as §1

O=c1[nH]cc(F)c(=O)[nH]1 [Fluorouracil] (max concentration tested 10000 nM)
Settings | drug sensitivity score
[1] | 9.4
[2] | 0
[3] | 8.76
[4] | 8.77
[5] | 8.28
[6] | 5.42
[7] | 8.01
[8] | 0
[9] | 0
[10] | 0.36
[11] | 9.4
[12] | 6.91
[13] | 4.1
[14] | 2.24

percent inhibition of viability [%]
Settings | 1 nM | 10 nM | 100 nM | 1000 nM | 10000 nM
[15] | -1.75 | 0.12 | 4.17 | 40.3 | 84
[16] | 1.43 | 2.09 | 10.1 | 5 | 7.54
[17] | -11.2 | 1.29 | 5.09 | 42.9 | 60
[18] | -0.14 | 3.84 | 8.25 | 42.8 | 49.3
[19] | -7.37 | -4.14 | -1.13 | 39.8 | 64
[20] | 2.96 | 13.7 | 16.1 | 21.9 | 19
[21] | -15.3 | -7.36 | -0.39 | 28.1 | 74.8
[22] | -1.01 | 15.2 | 8.55 | 0.37 | 11.4
[23] | -3.48 | 2.62 | 7.34 | 0.65 | 7.07
[24] | -7.45 | 1.88 | -3.48 | 4.56 | 12.9
[25] | -7.99 | -14.1 | -22.8 | 34.2 | 86.7
[26] | -4.58 | -7.58 | -3.77 | 12.7 | 86.4
[27] | -1.71 | -2.2 | -3.46 | 5.05 | 60.8
[28] | -6.1 | -8.86 | -5.42 | 2.62 | 38.1

CC(C)c1cc(-c2n[nH]c(=O)n2-c2ccc3c(ccn3C)c2)c(O)cc1O [Ganetespib] (max concentration tested 1000 nM)
Settings | drug sensitivity score
[1] | 22.8
[2] | 22.3
[3] | 21.4
[4] | 23.3
[5] | 17.1
[6] | 14.4
[7] | 22
[8] | 23.5
[9] | 20.1
[10] | 17.9
[11] | 16.5
[12] | 18.7
[13] | 26.6
[14] | 24.6

percent inhibition of viability [%]
Settings | 0.1 nM | 1 nM | 10 nM | 100 nM | 1000 nM
[15] | -2.27 | -6.04 | 33.9 | 101 | 107
[16] | -4.93 | 1.18 | 65.2 | 77.6 | 79.6
[17] | -6.96 | -10.1 | 22.3 | 97.8 | 105
[18] | -0.77 | -8.2 | 40.1 | 101 | 107
[19] | -3.81 | -4.31 | 1.84 | 93.2 | 99.1
[20] | 2.3 | -0.42 | 39.1 | 41.8 | 52.9
[21] | -3.59 | 1.19 | 45.1 | 90 | 92.9
[22] | 1.74 | 4.42 | 62.4 | 86.4 | 86.4
[23] | -14.5 | -11 | 45.4 | 78.5 | 79.9
[24] | -2.6 | -2.72 | -0.68 | 99.7 | 101
[25] | -23.6 | -15.5 | 5.21 | 86.1 | 88.1
[26] | 1.44 | 4.41 | 5.54 | 99.7 | 109
[27] | -4.38 | 6.84 | 68.9 | 101 | 101
[28] | -7.81 | -3.48 | 56 | 98.1 | 99.3

CN(C)C1CCN(C(=O)c2ccc(NC(=O)Nc3ccc(-c4nc(N5CCOCC5)nc(N5CCOCC5)n4)cc3)cc2)CC1 [Gedatolisib] (max concentration tested 1000 nM)
Settings | drug sensitivity score
[1] | 12.7
[2] | 2.68
[3] | 0.11
[4] | 7.65
[5] | 5.75
[6] | 0.01
[7] | 13.9
[8] | 1.34
[9] | 1.15
[10] | 1.45
[11] | 6.43
[12] | 2.77
[13] | 17.5
[14] | 3.49

percent inhibition of viability [%]
Settings | 0.1 nM | 1 nM | 10 nM | 100 nM | 1000 nM
[15] | 1.81 | -3.05 | 18.4 | 56.5 | 75.3
[16] | -16.6 | -2.18 | -0.9 | 7.29 | 33.2
[17] | -8.45 | -9.3 | 7.7 | -10.2 | 15.7
[18] | -4.82 | -2.02 | 7.1 | 34.4 | 65.2
[19] | -1.35 | -2.24 | 7.23 | 19.8 | 61.7
[20] | 4.88 | -18.3 | 3.45 | -12.4 | 12.5
[21] | -11 | -10.7 | 19.5 | 58.6 | 62
[22] | 4.43 | -5.19 | 5.53 | 2.83 | 24.4
[23] | -10.1 | -4.3 | -0.54 | 0.15 | 27.5
[24] | 1.19 | 4.03 | -1.18 | -2.3 | 34.8
[25] | 13 | 9.94 | 17.4 | 15.5 | 55.6
[26] | 3.45 | 0.68 | 6.16 | 4.39 | 40.9
[27] | -6.47 | 3.75 | 20.5 | 81.6 | 96.8
[28] | -0.13 | 7.4 | 1.57 | 11 | 38

C=CC(=O)N1CCC[C@@H](n2nc(-c3ccc(Oc4ccccc4)cc3)c3c(N)ncnc32)C1 [Ibrutinib] (max concentration tested 1000 nM)
Settings | drug sensitivity score
[1] | 0.35
[2] | 0
[3] | 0.3
[4] | 1.54
[5] | 3.17
[6] | 2.74
[7] | 4.8
[8] | 2.44
[9] | 0
[10] | 0
[11] | 0
[12] | 0
[13] | 2.68
[14] | 0

percent inhibition of viability [%]
Settings | 0.1 nM | 1 nM | 10 nM | 100 nM | 1000 nM
[15] | -1.09 | -1.95 | -0.26 | 0.88 | 15.6
[16] | -6.12 | 0.44 | 7.05 | -9.76 | 10.5
[17] | -15.8 | -16.1 | -8.18 | 0.25 | 15.7
[18] | 1.69 | 2.89 | 0.25 | 8.29 | 20.5
[19] | -2.79 | -1.68 | -0.35 | 13.8 | 31.3
[20] | -3.67 | 8.12 | 16.8 | 10 | 22.4
[21] | -5.52 | 0.29 | 10.1 | 24.2 | 30
[22] | -0.62 | 9.62 | 12.7 | 12.1 | 21
[23] | -5.07 | 4.6 | -2.73 | -10.7 | -14
[24] | -4.48 | -0.1 | -1.11 | -2.87 | -8.75
[25] | -11.4 | 9.91 | -7.4 | 1.24 | 8.78
[26] | -6.77 | -1.35 | -1.82 | 0.67 | 8.69
[27] | 2.78 | 2.44 | 6.17 | 7.83 | 34.1
[28] | -2.6 | -5.62 | -10 | -0.99 | -0.93

CC[C@H](Nc1ncnc2[nH]cnc12)c1nc2cccc(F)c2c(=O)n1-c1ccccc1 [Idelalisib] (max concentration tested 10000 nM)
Settings | drug sensitivity score
[1] | 0.36
[2] | 3.36
[3] | 14.8
[4] | 2.76
[5] | 3
[6] | 2.55
[7] | 3.92
[8] | 1.85
[9] | 1.78
[10] | 0
[11] | 6.33
[12] | 0.8
[13] | 8.42
[14] | 3.47

percent inhibition of viability [%]
Settings | 1 nM | 10 nM | 100 nM | 1000 nM | 10000 nM
[15] | -9.88 | -3.78 | 3.49 | -1.8 | 18
[16] | -10.8 | -5.29 | 14.8 | 13.4 | 35.6
[17] | 7.56 | 15.2 | 42.3 | 40.1 | 54.5
[18] | -6.15 | 4.84 | 14.3 | 12.3 | 24.5
[19] | 1.69 | 6.88 | 13.7 | 12.4 | 27.4
[20] | 1.24 | 15.1 | 10.3 | 1.19 | 46.2
[21] | -12.5 | -5.82 | 11 | 18.2 | 37
[22] | -2.62 | 10.2 | 9.54 | 5.66 | 28.7
[23] | -3.21 | -0.12 | 6.64 | 10.3 | 26.2
[24] | -6.02 | -6.45 | -0.47 | -2.08 | 11.1
[25] | -11.8 | -5.04 | 17.2 | 23.9 | 57.8
[26] | -5.24 | 5.27 | 6.69 | 5.88 | 20.5
[27] | 0.81 | 7.45 | 12.8 | 35.1 | 66.8
[28] | -1.29 | -3.37 | 3.42 | 14.1 | 38.7

Reference: the supplement of paper PMC5908809
